Consider one compound from PMC6147133, “The Toxoplasma gondii Active Serine Hydrolase 4 Regulates Parasite Division and Intravacuolar Parasite Architecture” (mSphere, 2018).

The structures appear in SMILES notation.

In this assay the target is T1, rASH4 (ASH4) (Toxoplasma gondii, UniProt A0A125YZ56).
T1 construct: full-length ORF from RH cDNA, N-terminal 6xHis tag (pET-28A, pIF22), E. coli BL21-CodonPlus(DE3)-RIL; active-site S124, G2 myristoylation site
T1 sequence (A0A125YZ56 1-260): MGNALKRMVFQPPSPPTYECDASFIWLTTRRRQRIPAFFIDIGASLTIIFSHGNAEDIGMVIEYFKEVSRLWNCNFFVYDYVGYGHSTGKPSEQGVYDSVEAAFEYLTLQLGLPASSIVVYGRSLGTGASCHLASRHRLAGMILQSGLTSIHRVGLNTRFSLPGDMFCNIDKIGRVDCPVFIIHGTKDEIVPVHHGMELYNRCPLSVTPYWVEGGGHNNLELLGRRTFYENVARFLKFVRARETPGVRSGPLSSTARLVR
Briefly: fluorogenic hydrolysis assay. In kind it is biochemical. The note with it: 10 uM substrate, 150 nM enzyme.

Consider `CC(=O)Oc1ccc2c(C)cc(=O)oc2c1` [4MU-acetate, 4-methyl-2-oxo-2H-chromen-7-yl acetate], for which the fluorogenic hydrolysis assay entry was “with the two-carbon acetyl ester having the highest rate of hydrolysis”.
